Holding throughout (assay): NCI-60 cell line screen, 48 h
The test system of experiment [1] is COLO 205 colon.
For experiment [2], the system named is HCT-15 colon.
The test system of experiment [3] is HL-60(TB) leukemia.
Experiment [4] deals with HOP-92 NSCLC.
In experiment [5] the test system is HT29 colon.
Experiment [6] has as its system LOX IMVI melanoma.
For experiment [7], the system named is MDA-MB-231 breast.
Experiment [8] deals with MDA-N.
For experiment [9], the system named is NCI-H460 lung.
The subject of experiment [10] is NCI/ADR-RES ovarian.
Experiment [11] deals with PC-3 prostate.
Experiment [12] relates to RPMI-8226 leukemia.
In experiment [13] the test system is SK-MEL-2 melanoma.
The subject of experiment [14] is SNB-75 CNS.
The test system of experiment [15] is SW-620 colon.
In experiment [16] the test system is UO-31 renal.
Experiment [17] has as its system HS 578T breast.
Experiment [18] has as its system MOLT-4 leukemia.
Experiment [19] concerns NCI-H522 lung.
In experiment [20] the test system is SK-OV-3 ovarian.

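In this assay, cells in 96-well plates receive the compound at five concentrations for 48 hours. Endpoints are linearly interpolated between the surrounding concentrations. TGI denotes the concentration required for complete inhibition of growth.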

In the case of `CCN(CC)CCCC(C)NC(=O)c1cc(-c2nccn2C)nc2ccc(C)cc12` (stereo unspecified), the TGI in experiment [1], in experiment [2], in experiment [3], in experiment [4], in [5] and in [6] was > 100 µM in each case. Besides, the TGI in [7], in experiment [8], in [9], in experiment [10], in experiment [11] and in [12] was > 100 µM each time. Moreover, the TGI in [13], in experiment [14], in [15] and in experiment [16] was > 100 µM each time.

Turning to `CC(C)(C)c1ccc(-c2nc3ccccc3c(=O)o2)cc1`, the TGI in [1] was 78.7 µM; in experiment [2], > 100 µM; in experiment [3] it was 48.8 µM; in experiment [4], > 100 µM; in experiment [17] it was > 100 µM; in [5], > 100 µM. For the same compound, the TGI in experiment [6] is 37.4 µM; in experiment [8], > 100 µM; in [18], 47.8 µM; in experiment [9] it was > 100 µM; in [19], 69.6 µM; in [10], > 100 µM. Further, the TGI was > 100 µM in experiment [11]; 93.3 µM in [12]; 66.6 µM in [13]; > 100 µM in experiment [20]; 95.2 µM in [14]; > 100 µM in [15]. In experiment [16], the TGI was > 100 µM.

Consider `SC[C@@H]1COC[C@H](CS)S1`, for which the TGI in experiment [1], in [2], in [3], in experiment [5], in experiment [6] and in [7] was > 100 µM in each case. Moreover, the TGI in experiment [8], in experiment [18], in experiment [9], in [19], in experiment [11] and in experiment [20] was > 100 µM throughout. For the same compound, the TGI in [14], in experiment [15] and in experiment [16] was > 100 µM throughout.

Turning to `CC1=NN(c2nc(N)nc(C(C)Sc3cc(Cl)c(C)cc3S(N)(=O)=O)n2)C(C)(C)C1` (stereo unspecified), the TGI in [1], in experiment [2], in experiment [3], in experiment [4], in [17] and in experiment [5] was > 10 µM throughout. For the same compound, the TGI in experiment [6], in [8], in [18], in [9], in experiment [19] and in [10] was > 10 µM throughout. In addition, the TGI in experiment [11], in experiment [12], in experiment [13], in experiment [20], in experiment [14] and in [15] was > 10 µM each time. The TGI in experiment [16] was > 10 µM.

In the case of `CSC(=NC1CC(n2cc(C)c(=O)[nH]c2=O)OC1CO)NC#N` (stereo unspecified), the TGI in experiment [1], in experiment [2], in [3], in experiment [4], in experiment [5] and in experiment [6] was > 100 µM throughout. Also, the TGI in experiment [7], in experiment [8], in experiment [18], in experiment [9], in [19] and in experiment [10] was > 100 µM each time. Also, the TGI in [11], in experiment [13], in experiment [20], in experiment [14], in experiment [15] and in [16] was > 100 µM each time.

For the compound `O=c1c2c(sc3ccccc13)NCN(CCc1ccccc1)C2`, the TGI in experiment [1] is 37 µM; in experiment [3], > 100 µM; in [4] it was > 100 µM; in experiment [5], 53.8 µM; in [6] it was > 100 µM; in experiment [7], 77.5 µM. Moreover, the TGI was 59.7 µM in experiment [8]; 80.2 µM in experiment [18]; > 100 µM in experiment [9]; > 100 µM in experiment [19]; 99 µM in experiment [10]; > 100 µM in [11]. In addition, the TGI in experiment [12] is 43 µM; in experiment [13], 75.4 µM; in experiment [20] it was > 100 µM; in experiment [14] it was 78.2 µM; in experiment [15], > 100 µM; in experiment [16], > 100 µM.

As to `CN(C)CCSC(=Nc1ccccc1)N1C=COC=C1`, the TGI in experiment [1] is > 72.2 µM; in experiment [2] it was 47.4 µM; in [3] it was > 100 µM; in [4] it was 73.2 µM; in experiment [17], > 100 µM; in experiment [5], > 100 µM. Besides, the TGI in [6] was 31.8 µM; in experiment [7], 41.1 µM; in experiment [8], 45.4 µM; in [18], > 100 µM; in experiment [9], > 100 µM; in experiment [19] it was 34 µM. For the same compound, the TGI is 95.5 µM in experiment [11]; > 100 µM in experiment [12]; 32.1 µM in experiment [13]; > 100 µM in [20]; > 100 µM in experiment [14]; 43.5 µM in experiment [15]. In addition, in experiment [16], the TGI is > 100 µM.

With `Cc1cccc2nc3n(c12)C(=O)c1ccccc1-3`, the TGI in experiment [1], in experiment [2], in experiment [3], in experiment [4], in experiment [5] and in experiment [8] was > 100 µM in each case. Further, the TGI in experiment [18], in experiment [9], in experiment [19], in experiment [10], in experiment [11] and in experiment [12] was > 100 µM each time. In addition, the TGI in [13], in experiment [20], in experiment [14], in experiment [15] and in experiment [16] was > 100 µM in each case.

In the case of `CC(=O)OCc1cccc(O)c1C(=O)CCC=C(C)C`, the TGI in [1], in experiment [2], in experiment [3], in [4], in experiment [17] and in experiment [5] was > 100 µM throughout. Moreover, the TGI was > 100 µM in [6]; > 100 µM in [8]; > 100 µM in experiment [18]; > 100 µM in experiment [9]; 56.6 µM in experiment [19]; > 100 µM in experiment [10]. The TGI in experiment [11], in experiment [12], in [13], in experiment [20], in experiment [15] and in [16] was > 100 µM throughout.

Regarding `Cc1nc2c(O)cccc2c(=O)[nH]1`, the TGI in [2] is > 1000 µM; in experiment [3], 471 µM; in experiment [4], > 1000 µM; in experiment [17], > 1000 µM; in experiment [5], > 1000 µM; in [6] it was > 1000 µM. The TGI in [8], in experiment [18], in experiment [9], in experiment [19], in experiment [10] and in [11] was > 1000 µM each time. Also, the TGI in [12], in experiment [13], in experiment [20], in experiment [14], in experiment [15] and in [16] was > 1000 µM throughout.

For `O=c1n(CCCN2CCN(c3cccc(Cl)c3)CC2)nc2n1-c1ccc3ccccc3c1SC2`, the TGI in experiment [1], in [2], in experiment [3], in experiment [4], in experiment [17] and in experiment [5] was > 100 µM each time. The TGI in [6], in experiment [8], in experiment [18], in [9], in experiment [19] and in [10] was > 100 µM each time. In addition, the TGI in experiment [11], in [12], in experiment [13], in experiment [20], in experiment [14] and in experiment [15] was > 100 µM throughout.

For the compound `O=C(O)Cn1nnc2c(=O)[nH][nH]c(=O)c21`, the TGI in [1], in [2], in experiment [3], in [4], in experiment [5] and in [6] was > 100 µM each time. Also, the TGI in experiment [7] was > 100 µM; in experiment [8], > 100 µM; in experiment [18], > 10 µM; in experiment [9], > 100 µM; in experiment [10], > 100 µM; in [12], > 100 µM. Besides, the TGI in experiment [13] and in [16] was > 100 µM in each case.

`C/C(O)=C(/C=N\C(=S)Nc1ccc(Cl)c(Cl)c1)C(=O)Nc1ccccc1C`: the TGI is > 100 µM in [1]; > 100 µM in experiment [2]; 60.1 µM in [3]; 58.1 µM in [4]; 87.1 µM in experiment [5]; > 100 µM in experiment [6]. The TGI in [7] is > 100 µM; in [8], > 100 µM; in experiment [18] it was 54.9 µM; in experiment [9] it was > 100 µM; in experiment [10], 61.1 µM; in experiment [13], > 100 µM. The TGI was > 100 µM in experiment [20], 66.3 µM in experiment [14], > 100 µM in experiment [15] and > 100 µM in experiment [16].

As to `COC(=O)c1ccccc1/C=C1\Cc2cc3c(cc2C1=O)CCC3`, the TGI in experiment [1], in experiment [2], in [3], in experiment [5], in experiment [6] and in [7] was > 100 µM in each case. Also, the TGI in experiment [8] was 78.8 µM; in experiment [18] it was > 100 µM; in [9] it was > 100 µM; in experiment [19] it was > 100 µM; in experiment [10] it was > 100 µM; in [11], > 100 µM. For the same compound, the TGI in experiment [12], in [13], in experiment [20], in experiment [14], in [15] and in experiment [16] was > 100 µM in each case.

As for `CN(C)C1(C(=O)O)CC1`, the TGI in experiment [2], in experiment [3], in experiment [4], in experiment [17], in experiment [5] and in [6] was > 100 µM each time. In addition, the TGI in [8], in experiment [18], in [9], in experiment [19], in experiment [10] and in [11] was > 100 µM throughout. The TGI in [12], in [14] and in [15] was > 100 µM throughout.

With `CCCCCCNC(=O)c1cc(C#Cc2cc(OC)ccc2OC)ccc1OC`, the TGI in experiment [1], in experiment [2], in [4], in [17], in experiment [5] and in experiment [6] was > 100 µM in each case. The TGI in experiment [7], in experiment [8], in experiment [18], in [9], in [19] and in experiment [10] was > 100 µM in each case. Also, the TGI in experiment [11], in experiment [12], in experiment [13], in [20], in experiment [15] and in experiment [16] was > 100 µM each time.
